Like-named read-outs stand apart in the source and are kept apart here.
How the values were obtained:
[1] = target: T1, rhGBA (recombinant human GBA, Imiglucerase) (Homo sapiens, UniProt P04062, R534H); assay: Fluorogenic substrate (4-MU-β-D-glucoside) enzymatic assay, rhGBA; assay type: biochemical; details: for IC50: incubation time 30 min, enzymatic assay, ±SD, n=3, read-out: In vitro apparent IC50 rhGBA
T1 construct: purchased Sanofi Genzyme (Cambridge, MA, USA)
T1 sequence (P04062 40-536 R534H): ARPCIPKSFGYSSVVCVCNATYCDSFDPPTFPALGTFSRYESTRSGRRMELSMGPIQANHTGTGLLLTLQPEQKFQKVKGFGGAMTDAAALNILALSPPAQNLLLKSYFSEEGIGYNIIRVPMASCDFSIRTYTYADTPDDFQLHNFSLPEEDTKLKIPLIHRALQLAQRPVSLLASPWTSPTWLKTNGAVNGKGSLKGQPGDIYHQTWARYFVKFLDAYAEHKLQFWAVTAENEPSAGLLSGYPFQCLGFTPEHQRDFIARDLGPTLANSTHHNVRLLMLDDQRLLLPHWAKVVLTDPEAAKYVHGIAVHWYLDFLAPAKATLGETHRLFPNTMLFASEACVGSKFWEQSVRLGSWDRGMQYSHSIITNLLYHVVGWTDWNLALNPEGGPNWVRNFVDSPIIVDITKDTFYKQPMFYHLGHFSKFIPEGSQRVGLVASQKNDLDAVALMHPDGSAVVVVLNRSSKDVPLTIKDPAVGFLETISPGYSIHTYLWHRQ
Procedure: Using fluorogenic substrate‐based assays, we determined apparent IC50 values at 30 min incubation time of the xylo‐cyclophellitols in rhGBA, and GBA2 and GBA3 lysates of cells expressing only each of the enzymes specifically.
(§1) Enzyme activity assays: All assays were performed with lysates of HEK293T cells or zebrafish larvae in 96‐well plates at 37 °C. Samples were diluted with McIlvaine buffer (150 mM citric acid‐Na2HPO4) to a final volume of 25 μL, at pH appropriate for each enzyme. Assays were performed by incubating the samples with 100 μL 4‐methylumbelliferyl‐β‐D‐glucoside substrates diluted in McIlvaine buffer (with 0.1 % (w/v) bovine serum albumin (BSA)) for a period of 30 min or 3 h. The substrate mixtures used for each enzyme were as follows: GBA, 3.75 mM 4‐MU‐β‐D‐glucopyranoside (Glycosynth, Warrington Cheshire, UK) at pH 5.2, supplemented with 0.2 % (w/v) sodium taurocholate, 0.1 % (v/v) Triton X‐100, 0.1 % (w/v) bovine serum albumin (BSA); GBA2, 3.75 mM 4 MU‐β‐D‐glucopyranoside at pH 5.8; GBA3, 3.75 mM 4‐MU‐β‐D‐glucopyranoside at pH 6.0. After stopping the enzyme reaction with 200 μL 1 M NaOH‐glycine (pH 10.3), 4‐methylumbelliferone fluorescence was measured with a fluorimeter LS55 (Perkin Elmer, Waltham, MA, USA) with λEX 366 nm and λEM 445 nm. Enzyme activities were determined by subtraction of background (measured for incubations without enzyme). IC50 values were determined exactly as earlier described.[36]
(§2) The IC50 values were determined using a fluorogenic enzymatic assay. For GBA, 3.16 ng (53 fmol) of rhGBA, (recombinant human GBA, Imiglucerase) obtained from Sanofi Genzyme (Cambridge, MA, USA), was prepared in 12.5 μL McIlvaine buffer (150 mM, pH 5.2) supplemented with 0.1 % (v/v) Triton X‐100, and 0.2 % (w/v) sodium taurocholate, 0.1 % (w/v) bovine serum albumin (BSA). The enzyme was incubated with 12.5 μL of inhibitors diluted in McIlvaine buffer (150 mM, pH 5.2) at 37 °C for 30 min. In the case of GBA2 or GBA3, lysates of GBA/GBA2 KO HEK293T cells overexpressing GBA2 or GBA3, respectively where used. The enzymatic activity of GBA, GBA2 and GBA3 were measured with 4MU‐β‐D‐glucoside substrate as described above.

GBA2 = target: T2, GBA2 (Homo sapiens, UniProt Q9HCG7); assay: Fluorogenic substrate enzymatic assay, lysate of GBA/GBA2 KO HEK293T cells overexpressing GBA2; assay type: biochemical; details: for increase in GBA:GBA2 selectivity window compared to the conduritol analogue (13 or 14): IC50 ratio GBA2/GBA; for GBA2/GBA ratio, 3 h / (Ratio) GBA2/GBA: IC50 ratio
T2 construct: expressed in transfected cells; host or cells: HEK293T (GBA/GBA2 KO background for the fluorogenic assay; endogenous-GBA background with GBA2 and GBA3 overexpressed for ABPP and intact-cell assays)
T2 sequence (Q9HCG7 1-927): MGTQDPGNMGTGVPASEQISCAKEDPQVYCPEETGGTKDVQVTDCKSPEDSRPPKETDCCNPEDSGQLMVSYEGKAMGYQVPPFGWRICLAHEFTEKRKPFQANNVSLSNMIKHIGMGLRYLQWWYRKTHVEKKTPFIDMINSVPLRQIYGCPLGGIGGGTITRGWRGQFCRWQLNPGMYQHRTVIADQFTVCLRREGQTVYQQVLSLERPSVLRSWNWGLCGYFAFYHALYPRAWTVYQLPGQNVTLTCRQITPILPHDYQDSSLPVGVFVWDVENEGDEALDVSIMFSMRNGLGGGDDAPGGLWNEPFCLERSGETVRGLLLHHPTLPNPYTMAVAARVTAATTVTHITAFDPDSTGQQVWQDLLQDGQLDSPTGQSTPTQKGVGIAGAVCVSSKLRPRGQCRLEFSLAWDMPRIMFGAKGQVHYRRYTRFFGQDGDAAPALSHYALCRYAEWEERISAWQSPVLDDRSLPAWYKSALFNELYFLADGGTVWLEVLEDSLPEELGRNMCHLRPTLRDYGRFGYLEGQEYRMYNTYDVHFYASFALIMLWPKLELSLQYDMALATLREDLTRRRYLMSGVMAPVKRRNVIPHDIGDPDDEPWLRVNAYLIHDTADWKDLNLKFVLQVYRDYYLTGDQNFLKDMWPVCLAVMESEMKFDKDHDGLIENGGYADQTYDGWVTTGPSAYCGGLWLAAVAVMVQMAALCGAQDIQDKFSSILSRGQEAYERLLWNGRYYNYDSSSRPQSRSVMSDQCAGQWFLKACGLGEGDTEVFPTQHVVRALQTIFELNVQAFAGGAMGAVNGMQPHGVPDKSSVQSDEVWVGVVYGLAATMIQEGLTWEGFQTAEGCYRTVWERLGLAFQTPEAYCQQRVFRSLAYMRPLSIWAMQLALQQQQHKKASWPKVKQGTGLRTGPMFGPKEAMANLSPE
Procedure: as §1
as §2, with “The enzyme was incubated with 12.5 μL of inhibitors diluted in McIlvaine buffer (150 mM, pH 5.2) at 37 °C for 30 min.” left out

[2] = 30 min incubation time, read-out: apparent IC50 GBA2
[3] = enzymatic assay performed for 3 h, n=3, read-out: In vitro apparent IC50 GBA2, 3 h
[4] = incubation time 30 min, enzymatic assay, ±SD, n=3, read-out: In vitro apparent IC50 GBA2

**Q.** For O[C@@H]1[C@@H](O)[C@H](O)C[C@H]2N[C@@H]12 [compound 2, β‐D‐xylo‐Cyclophellitol aziridine], which IC50 [1] is on record?
**A.** The IC50 was 0.719 ± 0.196 µM.

**Q.** And the IC50 (GBA2; [2])?
**A.** The IC50 was > 25 µM.

**Q.** What about the “increase in GBA:GBA2 selectivity window compared to the conduritol analogue (13 or 14)” value (GBA2; in vitro 3 h) of the same compound?
**A.** The value was “three‐fold increase”.

**Q.** What about the “GBA2/GBA ratio, 3 h” value (GBA2; in vitro 3 h) of the same compound?
**A.** The value was 22.

**Q.** And the “(Ratio) GBA2/GBA” value (GBA2; in vitro, 30 min)?
**A.** The value was 44.

**Q.** What about the IC50 (GBA2; [3]) of the same compound?
**A.** Its IC50 is 5.31 ± 0.12 µM.

**Q.** And the “increase in inhibitory activity towards GBA2 of aziridines relative to epoxide analogues” value (GBA2; in vitro 3 h)?
**A.** The value was 10–20 fold.

**Q.** And the IC50 (GBA2; [4])?
**A.** Its IC50 is 31.6 ± 0.926 µM.

**Q.** Which results are given for CN1/C(=C/C=C/C=C/C2=[N+](CCCCCC(=O)NCc3cn(CCCCCCCCN4[C@H]5[C@H](O)[C@@H](O)[C@H](O)C[C@H]54)nn3)c3ccccc3C2(C)C)C(C)(C)c2ccccc21 (stereo partly shown) [ABP 6]?
**A.** IC50 [1]: 0.00644 ± 0.00049 µM; (Ratio) GBA2/GBA (GBA2; in vitro, 30 min): 84; IC50 (GBA2; [4]): 0.544 ± 0.11 µM

**Q.** What does the source list for O[C@@H]1[C@@H](O)[C@H](O)C[C@H]2O[C@@H]12 [compound 1, xylo‐cyclophellitol]?
**A.** IC50 [1]: 2.67 ± 0.0945 µM; IC50 (GBA2; [2]): > 25 µM; increase in GBA:GBA2 selectivity window compared to the conduritol analogue (13 or 14) (GBA2; in vitro 3 h): seven‐fold increase; GBA2/GBA ratio, 3 h (GBA2; in vitro 3 h): 272; (Ratio) GBA2/GBA (GBA2; in vitro, 30 min): >19; IC50 (GBA2; [3]): 122 ± 30.2 µM; IC50 (GBA2; [4]): > 50 µM

**Q.** With OC[C@@H]1[C@@H](O)[C@H](O)[C@@H](O)[C@@H]2O[C@H]12 [compound 3, cyclophellitol] as the compound, how does the IC50 [1] read?
**A.** The IC50 was 0.4 ± 0.0124 µM.

**Q.** And the “(Ratio) GBA2/GBA” value (GBA2; in vitro, 30 min)?
**A.** Its value is 0.4.

**Q.** And the IC50 (GBA2; [4])?
**A.** Its IC50 is 0.148 ± 0.00751 µM.

**Q.** For OC[C@@H]1[C@@H](O)[C@H](O)[C@@H](O)[C@@H]2N[C@H]12 [compound 4, cyclophellitol aziridine, reference compound], which IC50 [1] is on record?
**A.** The IC50 was 0.341 ± 0.00582 µM.

**Q.** What about the “(Ratio) GBA2/GBA” value (GBA2; in vitro, 30 min) of the same compound?
**A.** Its value is 0.8.

**Q.** What about the IC50 (GBA2; [4]) of the same compound?
**A.** The IC50 was 0.279 ± 0.0445 µM.

**Q.** Which results are given for [N-]=[N+]=NCCCCCCCCN1[C@H]2[C@H](O)[C@@H](O)[C@H](O)C[C@H]21 (stereo partly shown) [compound 5]?
**A.** potency against GBA compared to unsubstituted xylo-cyclophellitol aziridine 2 ([1]; in vitro, 30 min): 600 fold; IC50 [1]: 0.0012 ± 6e-05 µM; (Ratio) GBA2/GBA (GBA2; in vitro, 30 min): 5317; potency against GBA2 compared to 2 (GBA2; in vitro, 30 min): five‐fold higher; IC50 (GBA2; [4]): 6.38 ± 1.15 µM

**Q.** With CN1/C(=C/C=C/C=C/C2=[N+](CCCCCC(=O)NCc3cn(C[C@@H]4[C@@H](O)[C@H](O)[C@@H](O)[C@@H]5O[C@H]45)nn3)c3ccccc3C2(C)C)C(C)(C)c2ccccc21 [ABP 9, reference compound] as the compound, how does the IC50 [1] read?
**A.** Its IC50 is 0.0452 ± 0.00454 µM.

**Q.** And the “(Ratio) GBA2/GBA” value (GBA2; in vitro, 30 min)?
**A.** The value was > 111.

From publication PMC8596838, “Xylose‐Configured Cyclophellitols as Selective Inhibitors for Glucocerebrosidase” (Chembiochem, 2021)
